Columns and labels:
[1] = Metabolic stability in mouse liver microsomes; format: in vitro ADME; details: for half-life at 2 μM: mouse liver microsomes 0.5 mg/mL, test compound 2 μM, sampling 0-60 min, read-out: Half life t1/2 (min) in mouse liver microsomes; for metabolic stability in the liver microsomes compared with non-deuterated control defactinib: mouse liver microsomes, result in words
Protocol: (§1) Step 1. The mother solution was prepared according to the component ratio in Table 1 below:
(§2) Step 2: Two experiments were carried out as follows:
(§3) A) Adding reduced coenzyme II (NADPH): 20 mg/mL liver microsomes (10 μL) and 10 mM NADPH (40 μL) were added into the incubation experiment. The final concentrations of liver microsomes and NADPH were 0.5 mg/mL and 1 mM, respectively.
(§4) B) Without NADPH: 20 mg/mL liver microsomes (10 μL) and high pure water (40 μL) were added into the incubation experiment. The final concentration of liver microsomes was 0.5 mg/mL.
(§5) Step 3: The reaction began after adding 200 μM positive control (4 μL) or test compound. The positive control was verapamil in this experiment. The final concentration of the test compound was 2 μM.
(§6) Step 4: At the time points 0 min, 15 min, 30 min, 45 min, and 60 min, 50 μL solution was sampled from each reaction solution. Acetonitrile (4× volumes of reaction solution) and IS (100 nM alprazolam, 200 nM labetalol, 200 nM caffeine, and 2 μM ketoprofen) were added to the reaction solution. The sample was centrifuged at 3220 g gravity for 40 min. 100 μL high pure water was added into 100 μL supernatant and analyzed by LC-MS/MS.
(§7) Step 5: Data analysis: the peak area was determined from the extracted ion chromatogram. The slope value k was determined by linear regression of the natural logarithm obtained from the curve between the residual percentage of parent drug and the incubation time.
(§8) In vitro half-life (In vitro t1/2) was determined by the slope value: in vitro t1/2=−([…]/k In vitro intrinsic clearance (in vitro CLint, in […]) was converted from in vitro half-life t1/2 (min) using the following equation (mean value of repeated determinations): […]
(§9) Scale up intrinsic clearance (Scale up CLint, in mL/min/kg) was converted from in vitro half-life t1/2 (min) using the following equation (mean value of repeated determinations): […]

[2] = Metabolic stability in rat liver microsomes; format: in vitro ADME; details: for half-life at 2 μM: rat liver microsomes 0.5 mg/mL, test compound 2 μM, sampling 0-60 min, read-out: Half life t1/2 (min) in rat liver microsomes; for metabolic stability in the liver microsomes compared with non-deuterated control defactinib: rat liver microsomes, result in words
Protocol: as §1, §2, §3, §4, §5, §6, §7, §8, §9

[3] = Metabolic stability in human liver microsomes; format: in vitro ADME; details: for half-life at 2 μM: human liver microsomes 0.5 mg/mL, test compound 2 μM, sampling 0-60 min, read-out: Half life t1/2 (min) in human liver microsomes; for metabolic stability in the liver microsomes compared with non-deuterated control defactinib: human liver microsomes, result in words
Protocol: as §1, §2, §3, §4, §5, §6, §7, §8, §9

[4] = Pharmacokinetic experiment in rats (PO, 10 mpk); format: in vivo; details: Sprague-Dawley (SD), rat, 10 mg/kg, male SD rats, PO by gavage, plasma; for AUC: read-out: Exposure dose AUC; for half-life: read-out: Half life t1/2 (converted); for Tmax: read-out: Peak hours tmax; for Cmax: read-out: Peak plasma concentration Cmax(ng/mL); for MRT inf: read-out: Retention time MRTinf
Protocol: Appropriate amount of drug (equivalent to 10 mg of the original drug) was accurately weighed, to which was first added 0.25 ml DMA to dissolve drug, and 0.5% CMC-Na was slowly added to 5 ml, then mixed well with ultrasonic and vortex. 0.2 ml final solution prepared was taken out and stored at −20° C. for concentration determination. Three healthy adult male SD rats (180-250 g) received drugs at 5 ml/kg by gavage after fasting overnight (free drinking water); 0.1 ml blood was collected from retroorbital venous plexus before administration and 0.5, 1, 2, 4, 6, 8, 12 and 24 h after administration, and plasma was separated by centrifugation at 4° C. for 5 min and stored at −20° C. for use. Then, LC/MS/MS method was used to determine the concentration of compounds in plasma.

Row | half-life at 2 μM [1] [min] | half-life at 2 μM [2] [min] | half-life at 2 μM [3] [min] | AUC [4] [ng·h/mL] | half-life [4] [h] | Tmax [4] [h] | Cmax [4] [ng/mL] | MRT inf [4] [h] | metabolic stability in the liver microsomes compared with non-deuterated control defactinib [2] | metabolic stability in the liver microsomes compared with non-deuterated control defactinib [3] | metabolic stability in the liver microsomes compared with non-deuterated control defactinib [1] | Structure (SMILES)
1 | 63 | 94 | 260 | 1650 | 1.46 | 0.67 | 643 | 2.4 |  |  |  | CNC(=O)c1ccc(Nc2ncc(C(F)(F)F)c(NCc3nccnc3N(C)S(C)(=O)=O)n2)cc1 [Defactinib, N-methyl-4-((4-(((3-(N-methylmethylsulfonyl)pyrazin-2-yl)methyl)amino)-5-(trifluoromethyl)pyrimidin-2-yl)amino)benzamide]
2 | 70 | 47 | 100 |  |  |  |  |  | slightly worse | slightly worse |  | [2H]C([2H])([2H])N(c1nccnc1CNc1nc(Nc2ccc(C(=O)NC)cc2)ncc1C(F)(F)F)S(C)(=O)=O [Compound 2, N-methyl-4-((4-(((3-(N-deuteromethylmethanesulfonamido)pyrazin-2-yl)methyl)amino)-5-(trifluoromethyl)pyrimidin-2-yl)amino)benzamide]
3 | 87 | 151 | 894 | 2840 | 1.74 | 0.67 | 1220 | 2.03 | significantly improved | significantly improved | significantly improved | [2H]C([2H])([2H])NC(=O)c1ccc(Nc2ncc(C(F)(F)F)c(NCc3nccnc3N(C)S(C)(=O)=O)n2)cc1 [Compound 1, N-(trideuteromethyl)-4-((4-(((3-(N-methylmethylsulfonyl)pyrazin-2-yl)methyl)amino)-5-(trifluoromethyl)pyrimidin-2-yl)amino)benzamide]
4 | 406 | 370 | 781 | 3740 | 2.46 | 1.67 | 971 | 3.35 | significantly improved | significantly improved | significantly improved | [2H]C([2H])([2H])NC(=O)c1ccc(Nc2ncc(C(F)(F)F)c(NCc3nccnc3N(C([2H])([2H])[2H])S(C)(=O)=O)n2)cc1 [Compound 3, N-(trideuteromethyl)-4-((4-(((3-(N-deuteromethylmethanesulfonamido)pyrazin-2-yl)methyl)amino)-5-(trifluoromethyl)pyrimidin-2-yl)amino)benzamide]

Source: patent US11891379B2, “Deuterated Defactinib compound and use thereof” (HINOVA PHARMACEUTICALS INC., priority 2018, dated 2024)
